According to patent publication US7045665B2, “Glucopyranosyloxybenzylbenzene derivatives, medicinal compositions containing the same and intermediates for the preparation of the derivatives” (Kissei Pharmaceutical Co., Ltd., priority 2000, dated 2006):

Legend:
[1] = system: urinary glucose excretion; test: Assay for the facilitatory effect on urinary glucose excretion; format: in vivo; conditions: SD rats, 1 mg/kg intravenous, oral glucose 2 g/kg; in 24 hours per 200 g of body weight
Experimental: Assay for the Facilitatory Effect on Urinary Glucose Excretion
As experimental animal, overnight fasted SD rats (SLC., male, 7 weeks of age, 180–240 g) were used. Ten mg of test compound was suspended or dissolved in 300 μL of ethanol and then dissolved by adding of 1.2 mL of polyethylene glycol 400 and 1.5 mL of saline, and then 3.3 mg/mL solution was prepared. Three hundred μL of this solution was dissolved with 2.7 mL of the solution for dilution (saline:polyethylene glycol 400:ethanol=5:4:1) and then 0.33 mg/mL solution was prepared. After the body weights of rats were measured, the solution of test compound was intravenously injected to the tail vein at the dose of 3 mL/kg (1 mg/kg). For control, just only the solution (saline:polyethylene glycol 400:ethanol=5:4:1) was intravenously injected to the tail vein at the dose of 3 mL/kg. Immediately after intravenous injection to the tail vein, 200 g/L of glucose solution was orally administered to the rats at the dose of 10 mL/kg (2 g/kg). The intravenous injection to the tail vein was performed with 26 G injection needle and 1 mL syringe. The oral administration was performed with gastric tube for rat and 2.5 mL syringe. The head count in one group was 2 or 3. Collection of urine was performed in metabolic cage after the oral administration of glucose was finished. The sampling time for collection of urine was 24 hours after the oral administration of glucose. After the collection of urine was finished, the urine volume was recorded and the urinary glucose concentration was measured. The glucose concentration was measured with a kit for laboratory test: Glucose B-Test WAKO (Wako Pure Chemical Industries, Ltd.). The amount of urinary glucose excretion in 24 hours per 200 g of body weight was calculated from urine volume, urinary glucose concentration and body weight.

human SGLT2 = target: T1, human SGLT2 (Homo sapiens, UniProt P31639, I433V); test: Assay for inhibitory effect on human SGLT2 activity (uptake of methyl-α-D-glucopyranoside); format: cell-based; conditions: COS-7 cells transiently expressing human SGLT2; uptake of methyl-α-D-(U-14C)glucopyranoside, 37° C., 2 hours
T1 construct: expressed in transfected cells; host or cells: COS-7 cells (RIKEN CELL BANK RCB0539), transient, electroporation
T1 sequence (P31639 1-672 I433V): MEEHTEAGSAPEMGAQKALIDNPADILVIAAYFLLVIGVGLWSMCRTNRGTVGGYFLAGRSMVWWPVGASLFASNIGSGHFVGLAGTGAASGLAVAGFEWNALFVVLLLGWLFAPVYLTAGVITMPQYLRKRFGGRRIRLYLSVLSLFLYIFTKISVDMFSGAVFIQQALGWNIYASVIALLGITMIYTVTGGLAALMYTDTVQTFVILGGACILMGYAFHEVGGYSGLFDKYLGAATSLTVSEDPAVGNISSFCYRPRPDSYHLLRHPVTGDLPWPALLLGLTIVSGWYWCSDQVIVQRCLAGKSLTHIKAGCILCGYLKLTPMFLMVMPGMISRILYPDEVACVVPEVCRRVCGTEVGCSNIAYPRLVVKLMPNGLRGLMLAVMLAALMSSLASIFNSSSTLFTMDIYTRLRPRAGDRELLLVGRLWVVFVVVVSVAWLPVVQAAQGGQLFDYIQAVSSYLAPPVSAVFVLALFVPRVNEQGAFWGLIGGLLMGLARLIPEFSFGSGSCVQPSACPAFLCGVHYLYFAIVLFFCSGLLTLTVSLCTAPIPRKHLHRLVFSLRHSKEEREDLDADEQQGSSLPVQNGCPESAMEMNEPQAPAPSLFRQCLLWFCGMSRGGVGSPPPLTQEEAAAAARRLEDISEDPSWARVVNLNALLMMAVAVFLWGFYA
Experimental: Assay for Inhibitory Effect on Human SGLT2 Activity
Preparation of the cDNA library for PCR amplification was performed by reverse transcription of a total RNA deprived from human kidney (Ori gene) with oligo dT as the primer, using […] Preamplification System (Gibco-BRL: LIFE TECHNOLOGIES). […] The amplified DNA fragment was ligated into pCR-Blunt (Invitrogen), a vector for cloning, according to standard method of the kit. […] The amplified DNA fragment was digested with restriction enzymes, Xho I and Hind III, and then purified with Wizard Purification System (Promega).
KL29, the plasmid coding human SGLT2, was transfected into COS-7 cells (RIKEN CELL BANK RCB0539) by electroporation. Electroporation was performed with GENE PULSER II (Bio-Rad Laboratories) under the condition: 0.290 kV, 975 μF, 2×10^6 cells of COS-7 cell and 20 μg of KL29 in 500 μL of OPTI-MEM I medium (Gibco-BRL: LIFE TECHNOLOGIES) in the 0.4 cm type cuvette. After the gene transfer, the cells were harvested by centrifugation and resuspended with OPTI-MEM I medium (1 mL/cuvette). To each well in 96-wells plate, 125 μL of this cell suspension was added.

ICR mice = test: Acute toxicity test; format: in vivo; conditions: male ICR mice, 2000 mg/kg subcutaneous, 5 animals
Experimental: Five weeks old male ICR mice (CLEA JAPAN, INC. 29–34 g, 5 animals in each group) were fasted for 4 hours, and 666 mg/mL of a suspension which was prepared by adding saline:polyethylene glycol 400:ethanol (5:4:1) to 2-[4-(2-hydroxyethyl)benzyl]phenyl β-D-glucopyranoside (the compound described in Example 10) was subcutaneously administered at the dose of 3 mL/kg (2000 mg/kg).

Row | Compound | Amount of urinary glucose excretion [1] [mg] | IC50 (human SGLT2) [nM] | Death until 24 hours after the administration (ICR mice)
1 | COc1ccc(Cc2ccccc2O[C@@H]2O[C@H](CO)[C@@H](O)[C@H](O)[C@H]2O)cc1 [Example 1, 2-(4-Methoxybenzyl)phenyl β-D-glucopyranoside] | 27.4 | – | –
2 | CCCOc1ccc(Cc2ccc(CO)cc2O[C@@H]2O[C@H](CO)[C@@H](O)[C@H](O)[C@H]2O)cc1 [Example 7, 5-Hydroxymethyl-2-(4-propoxybenzyl)phenyl β-D-glucopyranoside] | 109.1 | 140 | –
3 | CCc1ccc(Cc2ccc(CO)cc2O[C@@H]2O[C@H](CO)[C@@H](O)[C@H](O)[C@H]2O)cc1 [Example 8, 2-(4-Ethylbenzyl)-5-hydroxymethylphenyl β-D-glucopyranoside] | 238.9 | 8.1 | –
4 | OCCc1ccc(Cc2ccc(CO)cc2O[C@@H]2O[C@H](CO)[C@@H](O)[C@H](O)[C@H]2O)cc1 [Example 9, 2-[4-(2-Hydroxyethyl)benzyl]-5-hydroxymethylphenyl β-D-glucopyranoside] | – | 27 | –
5 | OCCc1ccc(Cc2ccccc2O[C@@H]2O[C@H](CO)[C@@H](O)[C@H](O)[C@H]2O)cc1 [Example 10, 2-[4-(2-Hydroxyethyl)benzyl]phenyl β-D-glucopyranoside] | 69.5 | 210 | No death was observed
6 | OCCCc1ccc(Cc2ccccc2O[C@@H]2O[C@H](CO)[C@@H](O)[C@H](O)[C@H]2O)cc1 [Example 11, 2-[4-(3-Hydroxypropyl)benzyl]phenyl β-D-glucopyranoside] | – | 75 | –
